Measured values: patent US20170239289A1, “TREATMENT OF INFLAMMATION, RESPIRATORY TRACT INFECTIONS AND CYSTIC FIBROSIS” (Advanced Inhalation Therapies (AIT) Ltd., priority 2014, published 2017)
Several values for one entry are separate records, joined by “and”; a condition that tells them apart may be missing. Equal entries are not always repeated.

Key:
[1] = test system: human subjects diagnosed with, or suffering from CF; assay: Example 1: FEV1 in CF subjects treated with 160 ppm NO; type: in vivo
Description: (§1) NO was administered via inhalation to nine clinically stable human subjects diagnosed with, or suffering from CF from two medical centers. Patients received three daily 30-minute treatments of 160 ppm NO with at least 3.5 hours between treatments, for 5 days per week over a two-weeks time period.
(§2) Preliminary efficacy measures included determination of microbial density in sputum and measurements of forced exhaled volume at 1 second (FEV1). Inflammation associated with C-reactive protein (CRP) levels was assessed as a secondary outcome measure. Other inflammation biomarkers, such as interleukins, were also monitored (data not shown).

[2] = test system: C-reactive protein (CRP); assay: Example 1: CRP levels in CF subjects treated with 160 ppm NO; type: in vivo, human; conditions: three subjects with baseline CRP greater than 5 mg/L
Description: as §1, §2

[3] = test system: human subjects diagnosed with acute bronchiolitis; assay: Example 3: randomized bronchiolitis study, infants 2-12 months; 160 ppm NO 30 min 5x daily up to 5 days plus O2 vs O2 alone; efficacy; type: in vivo
Description: Eligible subjects were randomized (1:1) to receive intermittent NO and standard treatment with O2 (hereafter referred to as NO treatment) or standard treatment with O2 (hereafter referred to as standard treatment) alone for a treatment period of up to 5 days. During treatment, MetHb and O2 saturation levels were continuously monitored using a dedicated monitor.
In addition to standard supportive O2 treatment which was initiated prior to randomization, subjects in the NO group were given five 30 minute inhalations per day of 160 ppm NO, at intervals of 3 to 4 hours, until subject improvement led to a physician decision of fit to discharge, to a maximum of 25 inhalations over 5 consecutive days. Inhalations were administered via hospital face masks (Hospiltak, Unomedical Inc).
All subjects in the control group were managed with standard supportive O2 treatment in the same way as the active treatment group, but without actual NO administration.
Secondary Endpoints—Efficacy: • LOS in hours, measured as time from first inhalation treatment to “fit to discharge” • Time to reach 92% O2 saturation (in room air) measured as time from first inhalation treatment to first O2 saturation of 92% sustained to discharge • Time to clinical score of less than or equal to 5 measured as time from first inhalation treatment to clinical score of less than or equal to 5
The following analysis sets were defined for analysis of safety and efficacy: • Intent-to-treat (ITT): Defined as all randomized subjects who received at least one study treatment. This was the main set for analysis of efficacy and safety. • Per-Protocol (PP): Defined as all subjects in the ITT cohort who completed study treatment in compliance with the protocol (i.e., excludes all early termination subjects) and who had no major protocol violations. This was a secondary set for analysis of efficacy.
An additional set for analysis of efficacy was defined post-hoc: • Modified Intent-to-treat (mITT): Defined as all subjects in the ITT, excluding subjects who were prematurely discontinued from treatment and/or or discontinued from the study according to protocol guidelines.
Length of hospitalization stay (LOS) was calculated in hours from the first inhalation treatment to “fit to discharge” defined as physician decision to discharge.
Time to achieve O2 saturation of 92% (improvement) leading to discharge was calculated from first treatment to the first time of O2 saturation of at least 92% before discharge. Time was taken from the clinical score assessments where applicable and from subject daily chart in special circumstances.
Time to clinical score of less than or equal to 5 was calculated from first inhalation to the first time the subject reached a clinical score of less than or equal to 5.
Survival Analysis using a Kaplan-Meier survival function curve was applied for testing the statistical significance of the difference between the study groups in the following endpoints: • LOS, from first inhalation to fit to discharge • Time to achieve 92% Saturation leading to discharge • Time to achieve clinical score less than or equal to 5
The Cox model was applied for comparative analysis of Kaplan-Meier curves. The hazards ratio was estimated via the Cox's regression model.
Post-hoc subgroup analyses of subjects with a LOS less than or equal to 24 hours and greater than 24 hours were also conducted for the key post-hoc secondary endpoints. Additional exploratory analyses were also conducted on a subgroups with LOS greater than 36 hours and a subgroup of the 10 most severe subjects (i.e., longest LOS) from each treatment group. These post-hoc analyses were conducted for the following reasons: • Based on preclinical studies, the anti-viral/anti-microbial treatment effect of NO is expected to take at least 24 hours (i.e., 2.5 treatment hours). • Approximately ⅓ of subjects were discharged after less than 24 hours in hospital. […]

[4] = mITT, 10 most severe subjects from each group
[5] = mITT, LOS greater than 24 hours
[6] = mITT, LOS greater than 36 hours

In the case of [N]=O [NO, nitric oxide], the FEV1 reduction ([1]; one patient, returned to initial levels after 2 weeks) is reported as 11%, the “changes in FEV1 values” ([1]; two of 9 subjects) is reported as “no significant changes” and the “reduction in CRP levels after treatment” value [2] is reported as 40-60%. The “Hazard ratio, time to sustained 92% O2 saturation” value ([3]; ITT (N=42), NO vs standard treatment, 95% CI: 0.392, 1.361) was 0.731, the “Hazard ratio, time to clinical score less than or equal to 5” value (from here on “Hazard ratio, time … to 5”) ([3]; ITT (N=43), NO vs standard treatment, 95% CI: 0.378, 1.404) was 0.728 and the “Hazard ratio, LOS (Kaplan-Meier/Cox)” value ([3]; ITT (N=43), NO vs standard treatment, 95% CI: 0.435, 1.518) was 0.812. The “Time to first 92% O2 saturation sustained to discharge, Mean (SD)” value ([3]; ITT, All (N = 42)) was 35.50 (33.73) hours and 35.50 hours, the “Time to first 92% O2 saturation sustained to discharge, Median” value ([3]; ITT, All (N = 42)) was 21.08 h and the “LOS, hours Mean (SD)” value ([3]; ITT, All (N = 43)) was 43.34 (32.95) hours and 43.34 hours. The “LOS, hours Median” value ([3]; ITT, All (N = 43)) was 40.03 h, the “Time to Clinical Score ≦5, Mean (SD)” value ([3]; ITT, All (N = 43)) was 32.83 (30.61) hours and 32.83 hours and the “Time to Clinical Score ≦5, Median” value ([3]; ITT, All (N = 43)) was 21.08 h. For the same compound, the “LOS, hours Mean (SD)” value ([3]; ITT, LOS >24 hours (N = 27)) was 53.27 h, the “LOS, hours Median” value ([3]; ITT, LOS >24 hours (N = 27)) was 41.92 h and the “Time to Clinical Score ≦5, Mean (SD)” value ([3]; ITT, LOS >24 hours (N = 27)) was 39.62 h. For the same compound, the “Time to Clinical Score ≦5, Median” value ([3]; ITT, LOS >24 hours (N = 27)) was 39.92 h, the “Time to first 92% O2 saturation sustained to discharge, Mean (SD)” value ([3]; ITT, LOS >24 hours (N = 27)) was 43.35 h and the “Time to first 92% O2 saturation sustained to discharge, Median” value ([3]; ITT, LOS >24 hours (N = 27)) was 41.17 h. For the same compound, the “Hazard ratio, time … to 5” value ([3]; ITT, LOS greater than 24 hours, 95% CI: 0.161, 0.949) was 0.391, the “Hazard ratio, LOS (Kaplan-Meier/Cox)” value ([3]; ITT, LOS greater than 24 hours, 95% CI: 0.211, 1.091) was 0.480 and the “Hazard ratio, time to sustained 92% O2 saturation” value ([3]; ITT, LOS greater than 24 hours, 95% CI: 0.232, 1.145) was 0.515. For the same compound, the “Time to first 92% O2 saturation sustained to discharge, Mean (SD)” value ([3]; ITT, LOS ≦24 hours (N = 15)) was 15.86 h, the “Time to first 92% O2 saturation sustained to discharge, Median” value ([3]; ITT, LOS ≦24 hours (N = 15)) was 16.78 h and the “LOS, hours Mean (SD)” value ([3]; ITT, LOS ≦24 hours (N = 16)) was 18.52 h. The “LOS, hours Median” value ([3]; ITT, LOS ≦24 hours (N = 16)) was 18.50 h, the “Time to Clinical Score ≦5, Mean (SD)” value ([3]; ITT, LOS ≦24 hours (N = 16)) was 15.86 h and the “Time to Clinical Score ≦5, Median” value ([3]; ITT, LOS ≦24 hours (N = 16)) was 16.78 h. For the same compound, the “Hazard ratio, time to sustained 92% O2 saturation” value ([3]; PP (N=38), 95% CI: 0.334, 1.302) was 0.660, the “Hazard ratio, time … to 5” value ([3]; PP (N=39), 95% CI: 0.332, 1.324) was 0.663 and the “Hazard ratio, LOS (Kaplan-Meier/Cox)” value ([3]; PP (N=39), 95% CI: 0.444, 1.688) was 0.866. The “Time to first 92% O2 saturation sustained to discharge, Mean (SD)” value ([3]; PP, All (N = 38)) was 30.17 (21.06) hours and 30.17 hours, the “Time to first 92% O2 saturation sustained to discharge, Median” value ([3]; PP, All (N = 38)) was 21.08 h and the “LOS, hours Mean (SD)” value ([3]; PP, All (N = 39)) was 38.79 (21.52) hours and 38.79 hours. The “LOS, hours Median” value ([3]; PP, All (N = 39)) was 40.03 h, the “Time to Clinical Score ≦5, Mean (SD)” value ([3]; PP, All (N = 39)) was 27.18 (13.17) hours and 27.18 hours and the “Time to Clinical Score ≦5, Median” value ([3]; PP, All (N = 39)) was 21.08 h. The “LOS, hours Mean (SD)” value ([3]; PP, LOS >24 hours (N = 24)) was 46.03 h, the “LOS, hours Median” value ([3]; PP, LOS >24 hours (N = 24)) was 41.83 h and the “Time to Clinical Score ≦5, Mean (SD)” value ([3]; PP, LOS >24 hours (N = 24)) was 31.41 h. For the same compound, the “Time to Clinical Score ≦5, Median” value ([3]; PP, LOS >24 hours (N = 24)) was 34.92 h, the “Time to first 92% O2 saturation sustained to discharge, Mean (SD)” value ([3]; PP, LOS >24 hours (N = 24)) was 35.47 h and the “Time to first 92% O2 saturation sustained to discharge, Median” value ([3]; PP, LOS >24 hours (N = 24)) was 38.98 h. The “Hazard ratio, time … to 5” value ([3]; PP, LOS greater than 24 hours, 95% CI: 0.093, 0.799) was 0.273, the “Hazard ratio, time to sustained 92% O2 saturation” value ([3]; PP, LOS greater than 24 hours, 95% CI: 0.139, 0.921) was 0.358 and the “Hazard ratio, LOS (Kaplan-Meier/Cox)” value ([3]; PP, LOS greater than 24 hours, 95% CI: 0.164, 1.062) was 0.418. The “Time to first 92% O2 saturation sustained to discharge, Mean (SD)” value ([3]; PP, LOS ≦24 hours (N = 14)) was 15.32 h, the “Time to first 92% O2 saturation sustained to discharge, Median” value ([3]; PP, LOS ≦24 hours (N = 14)) was 16.75 h and the “LOS, hours Mean (SD)” value ([3]; PP, LOS ≦24 hours (N = 15)) was 18.50 h. For the same compound, the “LOS, hours Median” value ([3]; PP, LOS ≦24 hours (N = 15)) was 18.42 h, the “Time to Clinical Score ≦5, Mean (SD)” value ([3]; PP, LOS ≦24 hours (N = 15)) was 15.32 h and the “Time to Clinical Score ≦5, Median” value ([3]; PP, LOS ≦24 hours (N = 15)) was 16.75 h. For the same compound, the “median time to clinical score less than or equal to 5” value (“median time … to 5” below) ([3]; mITT, 10 most severe subjects (based on LOS) from each group) was 41.56 h, the “median LOS” value [3, 4] was 42.14 h and the “median time to 92% O2 saturation sustained to discharge” value [3, 4] was 41.59 h. The “median time … to 5” value [3, 5] was 34.92 h, the “median time to first 92% O2 saturation sustained to discharge” value [3, 5] was 38.98 h and the “median LOS” value ([3]; mITT, LOS greater than 24 hours (N=25)) was 41.83 h. The “Hazard ratio, time … to 5” value ([3]; mITT, LOS greater than 24 hours, 95% CI: 0.081, 0.699) was 0.238, the “Hazard ratio, time to sustained 92% O2 saturation” value ([3]; mITT, LOS greater than 24 hours, 95% CI: 0.119, 0.797) was 0.308 and the “Hazard ratio, LOS (Kaplan-Meier/Cox)” value ([3]; mITT, LOS greater than 24 hours, 95% CI: 0.140, 0.913) was 0.357. For the same compound, the “median LOS” value [3, 6] was 41.92 h, the “median time to 92% O2 saturation sustained to discharge” value [3, 6] was 41.37 h and the “median time … to 5” value [3, 6] was 41.37 h.
